According to patent US11925696B2, “Carbonic anhydrase IX targeting agents and methods” (priority 2016, dated 2024):
Like-named read-outs stand apart in the source and are kept apart here.

How the values were obtained:
[1] = test system: HT-29 xenografts; details: mouse, in vivo
Method: Additional mice were simultaneously injected with 100 nmol of unlabeled L2 or L3 ligand. Major tissues/organs were removed and the amount of radioactivity was determined. The percentage of injected dose/g of tissue was calculated and plotted. Error bars represent standard deviation.
Five-week-old male nu/nu mice were inoculated subcutaneously with HT-29 cells (5.0×10^6/mouse) on their shoulders. Growth of the tumors was measured in two perpendicular directions every 2 days using a caliper (body weights were monitored on the same schedule), and the volumes of the tumors were calculated as 0.5×L×W^2 (L=longest axis and W=axis perpendicular to L in millimeters). […] At various times, animals were sacrificed by CO2 asphyxiation. Images were acquired by shielding the kidneys via a Kodak Imaging Station (In-Vivo FX, Eastman Kodak Company) in combination with CCD camera and Kodak molecular imaging software (version 4.0). Radioimages: illumination source=radio isotope, acquisition time=3 min, f-stop=4, focal plane=5, FOV=160, binning=4. […] Radioactivity of preweighed tissues and ^99mTc-bound conjugates (10 nmol, 150 μCi) in saline (100 μL) was counted in a γ-counter. CPM values were decay corrected, and results were calculated as % injected dose (ID)/gram of wet tissue.

[2] = test system: HT-29 cells; experiment: 99mTc conjugates binding to HT-29 cells (apparent KD, gamma counting); set-up: species or system human
Method: HT-29 cells (150,000 cells/well in 500 μL) were seeded into 24-well Falcon plates and allowed to form monolayers over 48 h. […] After incubating for 1 h at 37° C., cells were rinsed twice with 1 mL of medium and 1 mL of tris buffer. After dissolving in 0.5 mL of 0.25 M NaOH (aq), cells were transferred into individual γ-counter tubes and radioactivity was counted using a γ-counter (Packard, Packard Instrument Company). Apparent KD was calculated by plotting bound radioactivity versus the concentration of radiotracer using GraphPad Prism 4.

[3] = test system: HT-29 cells; experiment: Binding of Hypoxyfluor to HT-29 cells (cell associated fluorescence); set-up: species or system human
Method: After washing, the remaining fluorescence was quantitated by fluorescence spectroscopy. Error bars represent standard deviation.
HT-29 cells (10^5) were seeded into 24-well BD purecoat amine plates and allowed to grow to confluence over 48-72 hr. Spent medium was replaced with 0.5 mL of fresh medium containing 0.5% bovine serum albumin, and various concentrations of the dye conjugate alone or the dye conjugate plus 100-fold excess CA IX ligand were added. After incubation for 1 hour at 37° C., cells were rinsed with incubation solution (2×1.0 mL) to remove unbound fluorescence and dissolved in 0.5 mL of 1% aqueous sodium dodecyl sulfate. Cell associated fluorescence was then measured using an excitation of 745 nm and emission of 790 nm. All experiments were performed in triplicate. The dissociation constant (KD) was calculated from a plot of cell bound fluorescence (RFU) versus the concentration of fluorescent conjugate added using the program, Graphpad Prism, and assuming a noncooperative single site binding equilibrium.

[4] = test system: HT-29 cells; experiment: Fluorescent/confocal microscopy of Hypoxyfluor and CA IX-Rhodamine on HT-29 cells; type: cell-based, human; details: 1 hour incubation, unbound conjugate washed off
Method: HT-29 cells (10^5) were seeded into chambered coverglass plates and allowed to grow to confluence over 48-72 hr. […] After incubation for 1 hour at 37° C., cells were rinsed three times with 1 mL of incubation solution to remove unbound fluorescence and 0.5 mL of fresh medium was added to the wells.
HT-29 cells that naturally express CA IX were used to determine cancer cell uptake and binding affinity of the newly synthesized conjugate. […] Fluorescence was quantitated as described above to determine binding affinity.

[5] = test system: HT-29 tumor xenografts; type: in vivo, mice
Method: Mice bearing HT-29 tumors were injected via tail vein with 4 nmol Hypoxyfluor alone or in combination with 100-fold excess CA IX inhibitor. Fluorescence images were acquired 4 hours post injection.
Tissues and organs were excised after whole animal imaging and the fluorescence images of the isolated tissues were acquired.
Mice bearing HT-29 tumors were injected via tail vein with the indicated concentrations of Hypoxyfluor and fluorescence images were acquired 4 hours post injection.
Using a 25-gauge needle, six-week-old female nu/nu mice were inoculated subcutaneously in their shoulders with HT-29 cells in RPMI1640 medium (5.0×10^6 cells per mouse). Tumor growth was measured in 2 perpendicular directions every 2 days with a caliper. Tumor volumes were calculated using the formula 0.5×L×W^2, where L is the measurement of the longest axis and W is the measurement of the axis perpendicular to L. Tumor bearing mice were treated via tail vein injection with different concentrations of Hypoxyfluor in the presence or absence of 100-fold CA IX ligand to block all unoccupied CA IX binding sites. Mice were imaged 4 hours post injection using a Caliper IVIS Lumina II Imaging station coupled to an ISOON5160 Andor Nikon camera equipped with Living Image Software Version 4.0. Image acquisition settings were as follows: lamp level, high; excitation, […]; emission, ICG; epi illumination; binning (M) 4; FOV, 12.5; f-stop, 4; acquisition time, 1 s.

[6] = 4 nmol tail vein, 4 hours post injection

Structure (SMILES)	overall percentage of the injected dose retained in the tissues [1]	Kd ([2]; 99mTc-bound conjugate, 1 h at 37° C., read-out: Binding Affinity (apparent KD))	decrease of binding by addition of the PEG12-EC20 ([2]; binding affinity of conjugate versus reported Ki of original ligand)	Kd ([3]; 1 hour at 37° C., excitation 745 nm, emission 790 nm, triplicate, read-out: apparent dissociation constant)	binding after pre-incubation with 100-fold excess of the unconjugated ligand ([3]; HT-29 cells)	location of binding on cultured HT-29 cells [4]	whole animal fluorescence [5, 6]	whole animal fluorescence with 400 nmol CA IX ligand [5, 6]	whole body fluorescence, dose escalation ([5]; 40 nmol/mouse)	whole body fluorescence, dose escalation ([5]; low and intermediate doses (3 and 13 nmol))
N[C@H](CNC(=O)CCOCCOCCOCCOCCOCCOCCOCCOCCOCCOCCOCCOCCNC(=O)CN(CCN(CC(=O)O)CC(=O)Nc1ccc(S(N)(=O)=O)cc1)CC(=O)Nc1ccc(S(N)(=O)=O)cc1)C(=O)N[C@@H](CC(=O)O)C(=O)NC[C@H](CS)C(=O)O [L2-PEG12-EC20]	somewhat lower overall percentage of the injected dose being retained in the tissues	54 nM	~7 fold							
COC(=O)N(CCN(CC(=O)NCCOCCOCCOCCOCCOCCOCCOCCOCCOCCOCCOCCOCCC(=O)CCCc1ccc(OC2=C(/C=C/C3=[N+](CCCCS(=O)(=O)O)c4ccc(S(=O)(=O)O)cc4C3(C)C)CCC/C2=C\C=C2\N(CCCCS(=O)(=O)O)c3ccc(S(=O)(=O)O)cc3C2(C)C)cc1)CC(=O)Nc1ccc(S(N)(=O)=O)cc1)CC(=O)Nc1ccc(S(N)(=O)=O)cc1 [Hypoxyfluor]				45 nM	binding was competed	binding was seen on both the cell surface and internal endosomes	predominately detected in the tumor	no fluorescent signal could be detected	nontumor associated fluorescence became apparent	fluorescence was restricted to the tumor
